Ends that are not written are not given here. * marks the point of attachment. Palmitoyl = CCCCCCCCCCCCCCCC(=O)*
Experiments:
melanocytes [1] = assay: In vitro melanocyte comparative analysis via absorbance readings (melanin production); format: cell-based; details: for Regulation of melanogenesis (decreased absorption denoting decreased melanin formation): melanocytes, summary of Table 10
Description: Melanocytes were cultured in 6-well plates containing growth media. Once confluent, 2 concentrations of each of the 10 compounds were added to the cells in triplicate wells for 4 days. There were a total of eleven 6-well plates, one for each compound treatment and one for the vehicle control. Absorbance readings were taken on the lysates prepared for each well of the 6-well plates, normalizing for cells counts. The model was initially tested for accuracy and validated using hexapeptide-12 in view of strong gene expression results with melanocyte cell line in the first study—confirmation of decreased stimulation was obtained. Additional validation was carried out using MSH addition to media to confirm increased stimulation of melanin production. The following compounds used in this study are seen in Table 9.

melanocytes [2] = assay: Gene expression study (RNA sequencing) in PGE2-induced melanocytes; format: cell-based, human; details: melanocytes induced with 10 uM PGE2, 24 hours of compound exposure
Description: Four cell types associated with pigmentation pathways—melanocytes, keratinocytes, fibroblasts and endothelial (HUVEC) cells—were analyzed for gene expression.
To simulate the UV stimulatory pigmentation pathway process, melanocytes were pre-treated with PGE2, a normal direct consequence of UV light exposure usually emanating from exposed keratinocytes. After the 48 hour attachment culture, these melanocytes were induced with 10 uM PGE2 in melanocyte media for 24 hrs. The four primary human adult dermal cell lines were cultured and plated in well plates in triplicate and then treated with 11 different compound treatments (plus DMSO control). After 48 hours of attachment culture, the remaining fibroblasts, HUVECs and keratinocytes were treated with the test compounds listed in Table 8.
After 24 hours of compound exposure, RNA lysate preparation was carried out and samples were shipped to MedGenome for RNA extraction, library construction and sequencing to 25M paired end 100 bp reads per sample. Library prep and sequencing was completed at MedGenome.

endothelial cells = assay: Gene expression of PMEL, tyrosinase genes, MC1/4R, EDNRB, MITF, ERK1/2, JNK, AKT1; format: cell-based; details: after treatment of endothelial cells as printed
Text: The methods similar to Examples 3-4 were used to measure expression of PMEL, tyrosinase genes, MC1/4R, EDNRB, MITF, ERK1/2, JNK, and ANKT1.
FIGS. 10A-10D illustrates the expression of PMEL (FIG. 10A), Tyrosinase genes (FIG. 10B), MC1/4R (FIG. 10C), and EDNRB (FIG. 10D) after treatment of endothelial cells with lactoferrin (Lacto), peptide derived from lactoferrin (TCV), hexapeptide-12 (Hex12), tripeptide-1 and hexapeptide-12 (TriHex), hexapeptide-11 (Hex11), tranexamic acid (Tran acid) octapeptide (Octa), phosphatidylserine (phos), Cannabidiol (CBD), and all (total).
MITF is regulated by phosphorylation. Specifically, the MAPK and Akt pathways are known to phosphorylate MITF at certain sites. FIGS. 12A-12C illustrate the expression of ERK1/2 (MAPK3/MAPK1) (FIG. 12A), JNK (FIG. 12B), AKT1 (FIG. 12C) after treatment of endothelial cells with lactoferrin (Lacto), peptide derived from lactoferrin (TCV), hexapeptide-12 (Hex12), tripeptide-1 and hexapeptide-12 (TriHex), hexapeptide-11 (Hex11), octapeptide (Octa), phosphatidylserine (phos), Cannabidiol (CBD), and all (total).

MITF = assay: In vitro MITF gene expression test in cultured fibroblasts; format: cell-based; details: 48 hours, 80 ppm Hexapeptide-12, 120 ppm Tripeptide-1 or blend of both, negative = downregulation
Description: Microphthalmia-associated transcription factor (MITF) is a master regulator of pigmentation and melanin transfer and a potential new target for hyperpigmentation and melanoma. In vitro MITF gene expression tests were carried out to ascertain differences between individual peptides (tripeptide-1 and hexapeptide-12) and their combination in terms of MITF downregulation.
Specifically, the tests were conducted by culturing fibroblasts and then adding tripeptide-1, hexapeptide-12, or a combination of both. After 48 hours, MITF gene expression was analyzed. […] This increased expression continued to manifest and increased even further at the 72 hour time point.

[3] = higher concentration (Lactoferrin 1000, HEX-11 200, Phosphatidylserine 500, Silymarin 20, Sesamol 100, Tranexamic Acid 1000, HEX-12 4.9, ug/mL or ug/uL; Phytoene/Phytofluene 5.00%), 4 days, control = 0.0 row
[4] = lower concentration (Lactoferrin 500, HEX-11 100, Phosphatidylserine 250, Silymarin 10, Sesamol 50, Tranexamic Acid 500, HEX-12 2.9, ug/mL or ug/uL; Phytoene/Phytofluene 2.50%), 4 days, control = 0.0 row

## Oc1ccc2c(c1)OCO2 [Sesamol, 3,4-Methylenedioxyphenol]
Melanocytes [1]; [3]
  Absorbance 405 nm: 0.465
  Absorbance 490 nm: 0.252
  Absorbance 492 nm: 0.183
Melanocytes [1]; [4]
  Absorbance 405 nm: 0.602
  Absorbance 490 nm: 0.361
  Absorbance 492 nm: 0.24
Melanocytes [1]
  Regulation of melanogenesis (decreased absorption denoting decreased melanin formation): Regulation of melanogenesis was also observed

## NC[C@H]1CC[C@H](C(=O)O)CC1 [Tranexamic Acid, Tranexamic acid]
Melanocytes [1]; [3]
  Absorbance 405 nm: 0.406
  Absorbance 490 nm: 0.243
  Absorbance 492 nm: 0.176
Melanocytes [1]; [4]
  Absorbance 405 nm: 0.395
  Absorbance 490 nm: 0.254
  Absorbance 492 nm: 0.187
Melanocytes [1]
  Regulation of melanogenesis (decreased absorption denoting decreased melanin formation): Regulation of melanogenesis was also observed

## Hexapeptide-12: hexapeptide-12; VGVAPG per Pal-VGVAPG (SEQ ID NO:25) in b49 (Palmitoyl-VGVAPG)
Melanocytes [2]
  melanogenic gene activity in melanocytes: particularly dominant in melanogenic activity
Melanocytes [2]; listed as hexapeptide-12
  melanogenic gene activity in melanocytes: significant effects on melanogenesis activity
Melanocytes [1]; [3]
  Absorbance 405 nm: 0.96
  Absorbance 490 nm: 0.64
  Absorbance 492 nm: 0.46
Melanocytes [1]; [4]
  Absorbance 405 nm: 1.32
  Absorbance 490 nm: 0.94
  Absorbance 492 nm: 0.64
Melanocytes [1]
  Regulation of melanogenesis (decreased absorption denoting decreased melanin formation): Regulation of melanogenesis was observed
Endothelial cells
  melanogenic activity (expression of PMEL, tyrosinase genes, MC1/4R, EDNRB, kinases): significant effects on such melanogenic activity
Endothelial cells; listed as hexapeptide-12
  melanogenic activity (expression of PMEL, tyrosinase genes, MC1/4R, EDNRB, kinases): robust melanogenic activity
MITF
  MITF gene expression (down-/upregulation): −1.16

## MSH: MSH addition to media to confirm increased stimulation of melanin production (SYSMEHFRWGKPV; ends and bridges not checked; UniProt P01189 138-150, looked up)
Melanocytes [1]; MSH 10 nm media (validation of increased melanin production), control 1.649
  Absorbance 405 nm: 1.921
Melanocytes [1]; MSH 10 nm media, control 0.501
  Absorbance 492 nm: 0.573
Melanocytes [1]; MSH 10 nm media, control 0.971
  Absorbance 490 nm: 1.155

## Tripeptide-1
MITF; listed as Tripeptide
  MITF gene expression (down-/upregulation): 1.72
MITF; listed as tripeptide-1
  MITF gene expression (down-/upregulation): +1.72
